Experimental data as given in ChEMBL document CHEMBL3046440, “Synthesis and antitumor evaluation of some 1,3,4-oxadiazole-2(3H)-thione and 1,2,4-triazole-5(1H)-thione derivatives” (Med Chem Res, 2012).

The compounds below were run on K562 (assay: Cytotoxicity against Homo sapiens (human) K562 cells after 24 hr by MTT assay). Details: K562, 24 h.
Format: functional, cell-based

Row | Structure (SMILES) | IC50 [µM]
1 | CC(C)[C@H](NC(=O)c1ccccc1)c1n[nH]c(=S)n1N | 154
2 | C[C@H](NC(=O)c1cccnc1)c1n[nH]c(=S)o1 | 739
3 | COc1ccc(/C=C/C(=O)N[C@H](C)c2n[nH]c(=S)o2)cc1 | 330
4 | NC(=O)NO [HYDROXYUREA] | 688
5 | CC(C)[C@H](NC(=O)c1ccc([N+](=O)[O-])cc1)c1n[nH]c(=S)o1 | 43.6
6 | C[C@H](NC(=O)c1ccc(Cl)cc1)c1n[nH]c(=S)n1N | 98.6
7 | CC(C)[C@H](NC(=O)c1ccccc1)c1n[nH]c(=S)o1 | 245
8 | C[C@H](NC(=O)c1ccc(Cl)cc1)c1n[nH]c(=S)o1 | 31.1
9 | C[C@H](NC(=O)c1ccccc1)c1n[nH]c(=S)n1N | 372
10 | O=C(/C=C/c1ccccc1)N[C@H](CO)c1n[nH]c(=S)o1 | 435
11 | C[C@H](NC(=O)c1ccccc1)c1n[nH]c(=S)o1 | 377
12 | C[C@H](NC(=O)Cc1ccccc1)c1n[nH]c(=S)o1 | 1020
